Experimental data taken from patent publication US20020026053A1, “Novel 3-(substituted) -2- indolinones compounds and use thereof as inhibitors of protein kinase activity” (priority 1997, published 2002).

System: FLK-1 receptor
Assay: FLK-1 Assay (cellular/catalytic ELISA, VEGF-stimulated phosphotyrosine)
Assay type: cell-based
Set-up: concentration or dose not given beside the values
Conditions: protocol P.110
Summary of the method: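 Receptor phosphotyrosine ELISA: Flk-1-expressing NIH3T3 C7#3 cells, starved overnight in 0.1% FBS medium, received compound (1:200 final dilution, 0.5% DMSO) for 2 h at 37 °C, then VEGF. Anti-FLK-1-captured receptor was probed with anti-phosphotyrosine UB40 and peroxidase/ABTS read-out, relative to cells without compound.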

SMILES | Flk Kinase % Inhibition (P.110)
O=C1Nc2ccc(S(=O)(=O)Nc3ccc(C(F)(F)F)cc3)cc2C1=Cc1ccc2ccccc2c1 [10737/E08] | 21.3%
Cc1c(Br)cc(Br)c2c1C(=Cc1cccc(F)c1)C(=O)N2 [10736/H07] | 17.8%
Cc1c(Br)ccc2c1C(=Cc1cc(F)ccc1F)C(=O)N2 [10737/C04] | −20.1%
Cc1ccc(C)c(C=C2C(=O)Nc3ccc(S(=O)(=O)N4CCOCC4)cc32)c1 [10737/F07] | 19.1%
CNS(=O)(=O)c1ccc2c(c1)C(=Cc1cc(C)ccc1C)C(=O)N2 [10737/D07] | 12.9%
CNS(=O)(=O)c1ccc2c(c1)C(=Cc1cccc(F)c1F)C(=O)N2 [10737/D05] | 8.9%
O=C1Nc2c(Br)cc(Br)cc2C1=Cc1ccc2ccccc2c1 [10737/A08] | 4.9%
O=C1Nc2ccc(CCCl)cc2C1=Cc1ccc(Oc2ccccc2)cc1 [10737/G09] | 15.2%
Cc1ccc(C)c(C=C2C(=O)Nc3ccc(I)cc32)c1 [10737/B07] | 10.5%
Cc1c(Br)cc(Br)c2c1C(=Cc1cccc(F)c1F)C(=O)N2 [10737/H05] | 9.9%
Cc1c(Br)ccc2c1C(=Cc1cccc(Oc3ccc(C(C)(C)C)cc3)c1)C(=O)N2 [10737/C10] | 16.0%
CNS(=O)(=O)c1ccc2c(c1)C(=Cc1cccc(Oc3ccc(C(C)(C)C)cc3)c1)C(=O)N2 [10737/D10] | 23.2%
CCOc1ccc(C=C2C(=O)Nc3ccc(I)cc32)cc1 [10737/B02] | −3.0%
Cc1c(Br)cc(Br)c2c1C(=Cc1ccccc1F)C(=O)N2 [10736/H08] | 15.8%
CNS(=O)(=O)c1ccc2c(c1)C(=Cc1ccc(OC)c(F)c1)C(=O)N2 [10737/D06] | 13.0%
CNS(=O)(=O)c1ccc2c(c1)C(=Cc1ccc3ccccc3c1)C(=O)N2 [10737/D08] | 15.3%
O=C1Nc2ccc(CCCl)cc2C1=Cc1cccc(F)c1F [10737/G05] | 16.4%
CCOc1ccc(C=C2C(=O)Nc3ccc(S(=O)(=O)NC)cc32)cc1 [10737/D02] | 10.6%
Cc1ccc(C)c(C=C2C(=O)Nc3ccc(S(=O)(=O)Nc4ccc(C(F)(F)F)cc4)cc32)c1 [10737/E07] | 20.1%
CCOc1ccc(C=C2C(=O)Nc3c(Br)cc(Br)c(C)c32)cc1 [10737/H02] | 3.1%
O=C1Nc2ccc(S(=O)(=O)N3CCOCC3)cc2C1=Cc1cccc(Oc2cccc(C(F)(F)F)c2)c1 [10737/F11] | 31.6%
CNS(=O)(=O)c1ccc2c(c1)C(=Cc1cc(F)ccc1F)C(=O)N2 [10737/D04] | 12.0%
CC(C)(C)c1ccc(Oc2cccc(C=C3C(=O)Nc4ccc(S(=O)(=O)N5CCOCC5)cc43)c2)cc1 [10737/F10] | 26.1%
Cc1ccc(C=C2C(=O)Nc3ccc(I)cc32)c(C)c1 [10737/B03] | 7.0%
Cc1ccc(C=C2C(=O)Nc3c(Br)cc(Br)cc32)c(C)c1 [10737/A03] | −1.2%
COc1ccc(C=C2C(=O)Nc3ccc(I)cc32)cc1F [10737/B06] | 3.6%

SMILES | Flk Kinase % Inhibition (P.110)
Cc1c(Br)cc(Br)c2c1C(=Cc1ccccc1Cl)C(=O)N2 [10736/H11] | 17.6%
Cc1ccc(C=C2C(=O)Nc3ccc(Br)c(C)c32)c(C)c1 [10737/C03] | 10.1%
Cc1c(Br)ccc2c1C(=Cc1ccc(Oc3ccccc3)cc1)C(=O)N2 [10737/C09] | 8.4%
CC(C)(C)c1ccc(Oc2cccc(C=C3C(=O)Nc4c(Br)cc(Br)cc43)c2)cc1 [10737/A10] | 6.0%
O=C1Nc2c(Br)cc(Br)cc2C1=Cc1cccc(Oc2cccc(C(F)(F)F)c2)c1 [10737/A11] | 6.2%
O=C1Nc2ccc(CCCl)cc2C1=Cc1cccc(Oc2cccc(C(F)(F)F)c2)c1 [10737/G11] | 11.7%
CNS(=O)(=O)c1ccc2c(c1)C(=Cc1cccc(Oc3cccc(C(F)(F)F)c3)c1)C(=O)N2 [10737/D11] | 17.2%
O=C1Nc2ccc(S(=O)(=O)N3CCOCC3)cc2C1=Cc1cc(F)ccc1F [10737/F04] | 12.2%
COc1ccc(C=C2C(=O)Nc3c(Br)cc(Br)c(C)c32)cc1F [10737/H06] | 5.8%
CNS(=O)(=O)c1ccc2c(c1)C(=Cc1ccc(C)cc1C)C(=O)N2 [10737/D03] | 12.1%
Cc1ccc(C)c(C=C2C(=O)Nc3ccc(CCCl)cc32)c1 [10737/G07] | 20.3%
Cc1ccc(C=C2C(=O)Nc3ccc(S(=O)(=O)Nc4ccc(C(F)(F)F)cc4)cc32)c(C)c1 [10737/E03] | 17.9%
O=C1Nc2ccc(S(=O)(=O)Nc3ccc(C(F)(F)F)cc3)cc2C1=Cc1cc(F)ccc1F [10737/E04] | 16.1%
COc1ccc(C=C2C(=O)Nc3ccc(S(=O)(=O)N4CCOCC4)cc32)cc1F [10737/F06] | 12.3%
CC(C)(C)c1ccc(Oc2cccc(C=C3C(=O)Nc4ccc(CCCl)cc43)c2)cc1 [10737/G10] | 13.3%
O=C1Nc2c(Br)cc(Br)cc2C1=Cc1ccc(Oc2ccccc2)cc1 [10737/A09] | −10.1%
COc1cccc(C=C2C(=O)Nc3c(Br)cc(Br)c(C)c32)c1 [10736/H10] | 2.1%
COc1ccc(C=C2C(=O)Nc3ccc(CCCl)cc32)cc1F [10737/G06] | 12.8%
CC(C)(C)c1ccc(Oc2cccc(C=C3C(=O)Nc4ccc(S(=O)(=O)Nc5ccc(C(F)(F)F)cc5)cc43)c2)cc1 [10737/E10] | 18.9%
Cc1ccc(C=C2C(=O)Nc3ccc(S(=O)(=O)N4CCOCC4)cc32)c(C)c1 [10737/F03] | 16.3%
O=C1Nc2ccc(I)cc2C1=Cc1cc(F)ccc1F [10737/B04] | −8.2%
O=C1Nc2ccc(CCCl)cc2C1=Cc1cc(F)ccc1F [10737/G04] | 12.1%
Cc1c(Br)ccc2c1C(=Cc1ccc3ccccc3c1)C(=O)N2 [10737/C08] | 8.9%
O=C1Nc2ccc(S(=O)(=O)Nc3ccc(C(F)(F)F)cc3)cc2C1=Cc1cccc(F)c1F [10737/E05] | 14.9%
Cc1ccc(C=C2C(=O)Nc3c(Br)cc(Br)c(C)c32)c(C)c1 [10737/H03] | 3.2%
Cc1c(Br)ccc2c1C(=Cc1cccc(Oc3cccc(C(F)(F)F)c3)c1)C(=O)N2 [10737/C11] | 13.3%

SMILES | Flk Kinase % Inhibition (P.110)
CNS(=O)(=O)c1ccc2c(c1)C(=Cc1ccc(Oc3ccccc3)cc1)C(=O)N2 [10737/D09] | 13.9%
CCOc1ccc(C=C2C(=O)Nc3ccc(Br)c(C)c32)cc1 [10737/C02] | −2.9%
O=C1Nc2ccc(S(=O)(=O)Nc3ccc(C(F)(F)F)cc3)cc2C1=Cc1ccc(Oc2ccccc2)cc1 [10737/E09] | 11.9%
CCOc1ccc(C=C2C(=O)Nc3ccc(CCCl)cc32)cc1 [10737/G02] | 8.7%
CCOc1ccc(C=C2C(=O)Nc3ccc(S(=O)(=O)N4CCOCC4)cc32)cc1 [10737/F02] | 15.1%
COc1ccc(C=C2C(=O)Nc3ccc(S(=O)(=O)Nc4ccc(C(F)(F)F)cc4)cc32)cc1F [10737/E06] | 11.1%
Cc1ccc(C)c(C=C2C(=O)Nc3ccc(Br)c(C)c32)c1 [10737/C07] | 1.6%
COc1ccc(C=C2C(=O)Nc3ccc(Br)c(C)c32)cc1F [10737/C06] | 8.7%
O=C1Nc2c(Br)cc(Br)cc2C1=Cc1cc(F)ccc1F [10737/A04] | −0.4%
O=C1Nc2ccc(CCCl)cc2C1=Cc1ccc2ccccc2c1 [10737/G08] | 16.4%
O=C1Nc2ccc(I)cc2C1=Cc1ccc2ccccc2c1 [10737/B08] | 12.2%
O=C1Nc2ccc(S(=O)(=O)N3CCOCC3)cc2C1=Cc1cccc(F)c1F [10737/F05] | 18.4%
O=C1Nc2ccc(I)cc2C1=Cc1cccc(F)c1F [10737/B05] | −4.6%
CCc1ccc(C=C2C(=O)Nc3c(Br)cc(Br)c(C)c32)cc1 [10736/H09] | 13.2%
COc1ccc(C=C2C(=O)Nc3c(Br)cc(Br)cc32)cc1F [10737/A06] | −20.3%
O=C1Nc2c(Br)cc(Br)cc2C1=Cc1cccc(F)c1F [10737/A05] | −2.0%
O=C1Nc2ccc(S(=O)(=O)N3CCOCC3)cc2C1=Cc1ccc2ccccc2c1 [10737/F08] | 20.7%
CC(C)(C)c1ccc(Oc2cccc(C=C3C(=O)Nc4ccc(I)cc43)c2)cc1 [10737/B10] | 17.1%
O=C1Nc2ccc(S(=O)(=O)N3CCOCC3)cc2C1=Cc1ccc(Oc2ccccc2)cc1 [10737/F09] | 15.4%
Cc1c(Br)ccc2c1C(=Cc1cccc(F)c1F)C(=O)N2 [10737/C05] | −3.3%
O=C1Nc2ccc(I)cc2C1=Cc1cccc(Oc2cccc(C(F)(F)F)c2)c1 [10737/B11] | 12.8%
CCOc1ccc(C=C2C(=O)Nc3c(Br)cc(Br)cc32)cc1 [10737/A02] | −5.5%
CCOc1ccc(C=C2C(=O)Nc3ccc(S(=O)(=O)Nc4ccc(C(F)(F)F)cc4)cc32)cc1 [10737/E02] | 14.3%
Cc1ccc(C)c(C=C2C(=O)Nc3c(Br)cc(Br)cc32)c1 [10737/A07] | 3.4%
Cc1ccc(C=C2C(=O)Nc3ccc(CCCl)cc32)c(C)c1 [10737/G03] | 13.6%
Cc1c(Br)cc(Br)c2c1C(=Cc1cc(F)ccc1F)C(=O)N2 [10737/H04] | 11.6%
